Assay results taken from patent US20200390825A1, “PLURIPOTENT STEM CELL-DIRECTED MODEL OF AUTOSOMAL DOMINANT POLYCYSTIC KIDNEY DISEASE FOR DISEASE MECHANISM AND DRUG DISCOVERY” (University of Southern California, priority 2019, published 2020).

What was measured:
[1] = tested on: PKD2−/− organoids; conditions: for Inhibition of cyst formation / cystic growth: PKD2−/− mutant organoids, 0.1 μM
Method: (§1) 15 g of methelcellulose powder (Sigma-Aldrich, M0512) was autoclaved in a 500-ml Erlenmeyer flask. The autoclaved methylcellulose was dissolved in 60° C. 450 ml of Advanced RPMI 1640 Medium (Gibco, 12633020). 50 ml of Advanced RPMI 1640 Medium+1× Glutamax (Gibco, 35050079) and 1% Penicillin-Streptomycin (Invitrogen, 15070063) was then added at room temperature to a final volume of 500 ml. The final stock solution was cleared by centrifugation at 4000×g for 2 hours. The clear viscous supernatant was used for the spheroid assay. For mini-organoids culture and imaging, 170 μl of 20% methycellulose stock solution+80% basal differentiation media mix was added to each well of a 96-well plate (brand).
(§2) At dd13, miniature kidney organoids were transferred from the EZSPHERE plates to a sterile 35-mm dish by gentle pipetting with wide-bore P1000 tips. Under a dissecting microscope, 10-12 mini-organoids in 10 μl of media were picked up using a P20 pipetman and released into a well of the methylcellulose plate. A P20 pipette tip was then used to adjust the mini-organoids' positions in the well to avoid clustering. The mini-organoids then dispersed at the bottom of the well.
Compounds that were scored as true “hits” from the primary screen were selected for validations in both PKD1−/− and PKD2−/− mutant organoids. The compounds were diluted in DMSO to 1, 10 or 100 μM via serial dilution to make the working stocks. At dd14, 20 μl of each diluted compound or DMSO was added to a methylcellulose well with embedded organoids (180 μl) to achieve a final concentration of 0.1, 1 or 10 μM. The plates were imaged for 7 days using the ImageXpress Micro System as described above.
Compounds that inhibited cyst formation in both PKD1−/− and PKD2−/− mini-organoids were classified as final “hits”.
Tolvaptan is the first FDA approved pharmacological treatment for ADPKD targeting cAMP levels through the inhibition of AVPR2.
We examined dosage-dependent responses by applying 3 different compound concentrations of each compound: 0.1, 1 and 10 μM.

[2] = tested on: PKD1−/− organoids; assay: Secondary screen of cystogenesis, dosage-dependent responses; type: cell-based, human
Method: as §1, §2
Compounds that were scored as true “hits” from the primary screen were selected for validations in both PKD1−/− and PKD2−/− mutant organoids. […]

[3] = tested on: PKD2−/− organoids; assay: Primary protein kinase inhibitor screen for cyst formation in mini-kidney organoids; type: cell-based, human; conditions: 1 μM, 9 wells on 3 plates per compound
Method: The autoclaved methylcellulose was dissolved in 60° C. 450 ml of Advanced RPMI 1640 Medium (Gibco, 12633020).
Several commercially available libraries of pathway annotated protein kinase inhibitors were purchased from Calbiochem for screening: EMD protein kinase inhibitor 1 (Cat. No. 539744); EMD-protein kinase inhibitor-2 (Cat. No. 539745); EMD protein kinase inhibitor-3 (Cat. No. 539746); EMD protein kinase inhibitor-4 (Cat. No. 539747). All screens were carried out in the Choi Family Therapeutic Screening Facility in the Broad-CIRM center.
Protein kinase inhibitors were diluted in DMSO to make 10 μM stocks. […] The plates were loaded on the ImageXpress Micro System for live imaging right after compounds were loaded. The imaging was performed using the “Standard” algorithm, at 4× magnification, 2 camera binning, with laser-based and image-based focusing enabled, and well-to-well autofocus was set to “focus on plate bottom and well bottom”.
To gain new insight into pathways specifically regulating cystic growth and to validate the mini-organoid system as a robust drug screening tool, we screened a commercial library of pathway annotated protein kinase inhibitors (FIG. 19). The primary screen was performed using a library of 247 protein kinase inhibitors (PKIs) (at 1 μM) on PKD2−/− organoids, with 9 wells on 3 separate plates per compound. […] To increase the stringency of the screen, only compounds identified as “hits” in all 9 wells were considered true “hits” and selected for a secondary screen.

CC(C)C[C@H](NC(=O)[C@H](CCc1ccccc1)NC(=O)CN1CCOCC1)C(=O)N[C@@H](Cc1ccccc1)C(=O)N[C@@H](CC(C)C)C(=O)[C@@]1(C)CO1 [Carfilzomib]
Inhibition of cyst formation / cystic growth [1]: prevented cyst formation effectively
Concentration at which cyst formation was prevented ([2]; PKD1−/− cystic organoids, tested 0.1, 1, 10 μM): only at the highest concentration

O=C1NCCc2[nH]c(-c3ccncc3)cc21 [Cdc7/Cdk9 inhibitor]
Primary screen outcome at dd20 (cystic growth / cell growth inhibition) [3]: more specific inhibition of cystic growth

Nc1ccc2ncnc(NCCc3ccc(Oc4ccccc4)cc3)c2c1 [NF-κB activation inhibitor]
Inhibition of cyst formation / cystic growth [1]: highly effective inhibiting cystic growth
Inhibition of cystic growth ([2]; PKD1−/− mutants, 0.1 μM): highly effective inhibiting cystic growth

NC(=O)Nc1sc(-c2ccccc2)cc1C(N)=O [IKK-2 inhibitor VI, (5-phenyl-2-ureido)thiophene-3-carboxamide]
Primary screen outcome at dd20 (cystic growth / cell growth inhibition) [3]: more specific inhibition of cystic growth

O=C(c1ccc(Nc2nccc(-c3cc4ccccc4s3)n2)cc1)N1CCC(N2CCCC2)CC1 [IKK inhibitor VII]
Primary screen outcome at dd20 (cystic growth / cell growth inhibition) [3]: more specific inhibition of cystic growth

Cc1ncc2ccccc2c1C#N [4-Cyano-3-methylisoquinoline]
Primary screen outcome at dd20 (cystic growth / cell growth inhibition) [3]: more specific inhibition of cystic growth

CN[C@@H]1C[C@H]2O[C@@](C)([C@@H]1OC)n1c3ccccc3c3c4c(c5c6ccccc6n2c5c31)C(=O)N[C@H]4O [UCN-02, 7-epi-hydroxystaurosporine]
Primary screen outcome at dd20 (cystic growth / cell growth inhibition) [3]: more specific inhibition of cystic growth

O=C1c2ccccc2-[n+]2ccc3c([nH]c4ccccc43)c21 [fascaplysin]
Primary screen outcome at dd20 (cystic growth / cell growth inhibition) [3]: more specific inhibition of cystic growth

CC1=C(O)C(=O)C=C2C1=CC=C1[C@@]2(C)CC[C@@]2(C)[C@@H]3C[C@](C)(C(=O)O)CC[C@]3(C)CC[C@]12C [Celastrol]
Effect on cell growth ([1]; PKD2−/− organoids, 10 μM): more broadly detrimental to cell growth
Screen outcome category ([1]; PKD2−/− organoids, at 1): hit

O=C1NC(=NCc2cccs2)S/C1=C\c1ccc2ncccc2c1 [Cdk1 inhibitor IV RO-3306]
Primary screen outcome at dd20 (cystic growth / cell growth inhibition) [3]: more specific inhibition of cystic growth

COc1cccc(-c2cc(=O)c3ccccc3o2)c1N [PD 98059]
Primary screen outcome at dd20 (cystic growth / cell growth inhibition) [3]: more specific inhibition of cystic growth

Nc1ncnc2n[nH]c(Nc3ccc(F)cc3)c12 [MNK1 inhibitor]
Primary screen outcome at dd20 (cystic growth / cell growth inhibition) [3]: more specific inhibition of cystic growth
